Experiments:
[1] = system: breast cancer cell line MCF-7; test: Iodide uptake assay (Na125I) in MCF-7 cells; format: cell-based, human
Description: (§1) All the cell lines used herein were purchased from the Deutschen Sammlung von Mikroorganismen und Zelikulturen (DSMZ; Brunswick, Germany, DSMZ No.: MCF-7 (ACC 115)). MCF-7 cells were cultured in RPMI 1640 medium with 10% FCS (fetal calf serum) and addition of 1× nonessential amino acids, 0.01 mg/ml bovine insulin and 5% penicillin/streptomycin. The HeLa cells were cultured in RPMI 1640 medium. All the reagents for the cell culture were, unless indicated otherwise, purchased from Invitrogen, Karlsruhe, Germany. Cells were cultured in plates with 24 wells (24 Well Plates) for 24 h. The cells were then washed and subsequently the substances to be tested (ciglitazone, trans-retinoic acid with or without KClO4) were added in fresh medium. […] After the incubation, the cells were washed twice with ice-cold RPMI 1640 and lysed in 2% SDS-PAGE sample buffer (0.0625 M Tris-HCl, pH 6.8) with 1 U/μl Benzonase (Merck KgaA, Darmstadt, Germany). The ^125I uptake was measured in a gamma counter. An aliquot of each sample was employed to determine the protein concentration using the DC protein determination kit from Bio-Rad (Munich, Germany) in order thus to achieve standardization with different numbers of cells.

NIS = molecular target: T1, NIS (Homo sapiens, UniProt Q92911); test: Blocking experiments: iodide uptake in presence of KClO4; format: cell-based; conditions: 30 mM KClO4; MCF-7 treated with tRA with or without CIG
T1 construct: NIS gene expression is increased synergistically by treatment of CIG in combination with retinoic acid in the breast cancer cell line MCF-7; endogenous in cells; host or cells: MCF-7 (DSMZ ACC 115)
T1 sequence (Q92911 1-643): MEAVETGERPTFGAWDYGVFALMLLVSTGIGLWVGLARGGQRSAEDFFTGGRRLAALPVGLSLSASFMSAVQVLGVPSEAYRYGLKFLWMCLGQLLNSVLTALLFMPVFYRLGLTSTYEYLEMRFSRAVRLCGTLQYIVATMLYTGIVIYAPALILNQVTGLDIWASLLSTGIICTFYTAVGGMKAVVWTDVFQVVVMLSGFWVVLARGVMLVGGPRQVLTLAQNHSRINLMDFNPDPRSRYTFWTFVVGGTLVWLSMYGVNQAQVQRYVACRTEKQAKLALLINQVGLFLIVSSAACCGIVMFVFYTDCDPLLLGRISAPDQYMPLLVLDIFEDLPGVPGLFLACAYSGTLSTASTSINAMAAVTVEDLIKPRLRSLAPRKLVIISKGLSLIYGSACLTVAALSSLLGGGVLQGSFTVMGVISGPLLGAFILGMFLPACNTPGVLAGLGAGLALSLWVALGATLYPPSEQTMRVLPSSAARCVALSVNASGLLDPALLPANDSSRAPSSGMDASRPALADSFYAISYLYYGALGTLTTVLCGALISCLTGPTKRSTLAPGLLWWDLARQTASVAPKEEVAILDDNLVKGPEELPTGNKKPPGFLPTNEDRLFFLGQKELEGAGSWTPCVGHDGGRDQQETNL
Description: Cells were cultured in plates with 24 wells (24 Well Plates) for 24 h. The cells were then washed and subsequently the substances to be tested (ciglitazone, trans-retinoic acid with or without KClO4) were added in fresh medium. For the iodide uptake, the cells were first washed twice in prewarmed RPMI 1640 medium without FCS, and then incubated in 1 ml of RPMI 1640 without FCS which comprised 0.1 μCi/ml Na^125I (specific activity: 10 mCi/mmol, Amersham Biosciences, Freiburg, Germany) and 10 μM NaI/well for 1 h.
(§2) After the incubation, the cells were washed twice with ice-cold RPMI 1640 and lysed in 2% SDS-PAGE sample buffer (0.0625 M Tris-HCl, pH 6.8) with 1 U/μl Benzonase (Merck KgaA, Darmstadt, Germany). The ^125I uptake was measured in a gamma counter. An aliquot of each sample was employed to determine the protein concentration using the DC protein determination kit from Bio-Rad (Munich, Germany) in order thus to achieve standardization with different numbers of cells.
In order to test the specificity of NIS-mediated iodide uptake, the experiments described in the previous exemplary embodiment were also carried out in the presence of 30 mM KClO4, the strongest specific NIS inhibitor.

[2] = system: cervical carcinoma cell line HeLa; test: Iodide uptake assay (Na125I) in HeLa cells; format: cell-based; conditions: 1 μM tRA with or without 5 μM CIG, 48 h
Description: as §1

[3] = system: prostate cancer cell line LNCaP; conditions: cited from earlier work
[4] = system: choriocarcinoma cell line JEG-3; conditions: cited from earlier work
NIS mRNA = NIS mRNA concentration in treated cells; format: cell-based; conditions: cells treated with tRA
[5] = system: non-small-cell lung cancer cell line A549; conditions: cited from earlier work
[6] = system: non-small-cell lung cancer cell line H460; conditions: cited from earlier work
HEK-293 cells = test: Iodide uptake assay in HEK-293 cells (analogous experiment); format: cell-based; conditions: results not shown
Description: as §2, with “Cells were cultured in plates with 24 wells (24 Well Plates) for 24 h. The cells were then washed and subsequently the substances to be tested (ciglitazone, trans-retinoic acid with or without KClO4) were added in fresh medium. […] After” for “After”

In the case of `CC1(COc2ccc(CC3SC(=O)NC3=O)cc2)CCCCC1` (stereo not shown) [CIG, ciglitazone], the “effect on iodide uptake (in words)” value ([1]; 1 μM tRA and/or 5 μM CIG) is reported as “no effect”.

For `[K+].[O-][Cl+3]([O-])([O-])[O-]` [KClO4], the “effect on iodide uptake of breast cancer cells (NIS blocking)” value (NIS) was “inhibited”.

In the case of `CC1=C(/C=C/C(C)=C/C=C/C(C)=C/C(=O)O)C(C)(C)CCC1` [tRA, trans-retinoic acid], the “induction of iodide uptake (in words)” value [2] is given as “no induction of iodide uptake”, the “induction of iodide uptake” value [3] is given as “does not induce iodide uptake” and the “induction of iodide uptake” value [4] is given as “does not induce iodide uptake”. The “time at which maximum iodide uptake was reached” value ([1]; 1 μM tRA) was 48 h, the “concentration of NIS mRNA” value (NIS mRNA) was “distinctly increased” and the “induction of iodide uptake” value [5] was “does not induce iodide uptake”. The “induction of iodide uptake” value [6] was “does not induce iodide uptake” and the “induction of iodide uptake (in words)” value (HEK-293 cells) was “same results”.

Reference: patent US9289464B2, “Method for diagnosing and treating NIS-expressing carcinomas and metastases” (priority 2002, dated 2016)
